#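 A five-concentration, 48-hour dose response in 96-well plates underlies each endpoint, interpolated linearly between surrounding concentrations. At the GI50, growth is halved. TGI is the concentration that stops growth completely.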
# Columns and labels:
# Assay in all cases: NCI tumour cell line growth inhibition, 48 h
# 786-0 renal = tested on: 786-0 renal
# A498 renal = tested on: A498 renal
# A549 NSCLC = tested on: A549 NSCLC
# ACHN renal = tested on: ACHN renal
# BT-549 breast = tested on: BT-549 breast
# CAKI-1 renal = tested on: CAKI-1 renal
# CCRF-CEM leukemia = tested on: CCRF-CEM leukemia
# COLO 205 colon = tested on: COLO 205 colon
# DU-145 prostate = tested on: DU-145 prostate
# EKVX NSCLC = tested on: EKVX NSCLC
# HCC-2998 colon = tested on: HCC-2998 colon
# HCT-116 colon = tested on: HCT-116 colon
# HCT-15 colon = tested on: HCT-15 colon
# HL-60(TB) leukemia = tested on: HL-60(TB) leukemia
# HOP-62 NSCLC = tested on: HOP-62 NSCLC
# HOP-92 NSCLC = tested on: HOP-92 NSCLC
# HS 578T breast = tested on: HS 578T breast
# HT29 colon = tested on: HT29 colon
# IGROV1 ovarian = tested on: IGROV1 ovarian
# K-562 leukemia = tested on: K-562 leukemia
# KM12 colon = tested on: KM12 colon
# LOX IMVI melanoma = tested on: LOX IMVI melanoma
# M14 melanoma = tested on: M14 melanoma
# MALME-3M melanoma = tested on: MALME-3M melanoma
# MCF7 breast = tested on: MCF7 breast
# MDA-MB-231 breast = tested on: MDA-MB-231 breast
# MDA-MB-435 = tested on: MDA-MB-435
# MDA-MB-468 breast = tested on: MDA-MB-468 breast
# MOLT-4 leukemia = tested on: MOLT-4 leukemia
# NCI-H226 lung = tested on: NCI-H226 lung
# NCI-H23 lung = tested on: NCI-H23 lung
# NCI-H460 lung = tested on: NCI-H460 lung
# NCI-H522 lung = tested on: NCI-H522 lung
# OVCAR-3 ovarian = tested on: OVCAR-3 ovarian
# OVCAR-4 ovarian = tested on: OVCAR-4 ovarian
# OVCAR-5 ovarian = tested on: OVCAR-5 ovarian
# OVCAR-8 ovarian = tested on: OVCAR-8 ovarian
# PC-3 prostate = tested on: PC-3 prostate
# RPMI-8226 leukemia = tested on: RPMI-8226 leukemia
# RXF 393 renal = tested on: RXF 393 renal
# SF-268 CNS = tested on: SF-268 CNS
# SF-295 CNS = tested on: SF-295 CNS
# SF-539 CNS = tested on: SF-539 CNS
# SK-MEL-2 melanoma = tested on: SK-MEL-2 melanoma
# SK-MEL-28 melanoma = tested on: SK-MEL-28 melanoma
# SK-MEL-5 melanoma = tested on: SK-MEL-5 melanoma
# SK-OV-3 ovarian = tested on: SK-OV-3 ovarian
# SN12C renal = tested on: SN12C renal
# SNB-19 CNS = tested on: SNB-19 CNS
# SNB-75 CNS = tested on: SNB-75 CNS
# SR leukemia = tested on: SR leukemia
# SW-620 colon = tested on: SW-620 colon
# T-47D breast = tested on: T-47D breast
# TK-10 renal = tested on: TK-10 renal
# U251 CNS = tested on: U251 CNS
# UACC-257 melanoma = tested on: UACC-257 melanoma
# UACC-62 melanoma = tested on: UACC-62 melanoma
# UO-31 renal = tested on: UO-31 renal
structure (smiles),measurement,setting,value
COc1ccc(-c2ccnc(SCc3cc4cc(Cl)ccc4[nH]c3=O)n2)cc1,GI50,786-0 renal,15.1 µM
same,TGI,786-0 renal,36.5 µM
same,GI50,A498 renal,17.5 µM
same,TGI,A498 renal,46.2 µM
same,GI50,A549 NSCLC,15.6 µM
same,TGI,A549 NSCLC,> 100 µM
same,GI50,ACHN renal,5.64 µM
same,TGI,ACHN renal,19.8 µM
same,GI50,BT-549 breast,6.21 µM
same,TGI,BT-549 breast,33.2 µM
same,GI50,CAKI-1 renal,7.7 µM
same,TGI,CAKI-1 renal,27.1 µM
same,GI50,CCRF-CEM leukemia,16 µM
same,TGI,CCRF-CEM leukemia,> 100 µM
same,GI50,COLO 205 colon,44.8 µM
same,TGI,COLO 205 colon,> 100 µM
same,GI50,DU-145 prostate,10.2 µM
same,TGI,DU-145 prostate,24.2 µM
same,GI50,EKVX NSCLC,12.2 µM
same,TGI,EKVX NSCLC,64.9 µM
same,GI50,HCC-2998 colon,27.6 µM
same,TGI,HCC-2998 colon,> 100 µM
same,GI50,HCT-116 colon,14 µM
same,TGI,HCT-116 colon,> 100 µM
same,GI50,HCT-15 colon,29 µM
same,TGI,HCT-15 colon,> 100 µM
same,GI50,HL-60(TB) leukemia,> 100 µM
same,TGI,HL-60(TB) leukemia,> 100 µM
same,GI50,HOP-62 NSCLC,3.45 µM
same,TGI,HOP-62 NSCLC,16.6 µM
same,GI50,HOP-92 NSCLC,5.49 µM
same,TGI,HOP-92 NSCLC,39.8 µM
same,GI50,HS 578T breast,2.77 µM
same,TGI,HS 578T breast,9.75 µM
same,GI50,HT29 colon,53.6 µM
same,TGI,HT29 colon,> 100 µM
same,GI50,IGROV1 ovarian,27.1 µM
same,TGI,IGROV1 ovarian,> 100 µM
same,GI50,K-562 leukemia,31.2 µM
same,TGI,K-562 leukemia,> 100 µM
same,GI50,KM12 colon,19.9 µM
same,TGI,KM12 colon,> 100 µM
same,GI50,LOX IMVI melanoma,15 µM
same,TGI,LOX IMVI melanoma,> 100 µM
same,GI50,M14 melanoma,25 µM
same,TGI,M14 melanoma,> 100 µM
same,GI50,MALME-3M melanoma,4.72 µM
same,TGI,MALME-3M melanoma,27.4 µM
same,GI50,MCF7 breast,8.74 µM
same,TGI,MCF7 breast,58.1 µM
same,GI50,MDA-MB-231 breast,9.03 µM
same,TGI,MDA-MB-231 breast,32.2 µM
same,GI50,MDA-MB-435,14.4 µM
same,TGI,MDA-MB-435,> 100 µM
same,GI50,MDA-MB-468 breast,5.59 µM
same,TGI,MDA-MB-468 breast,35.9 µM
same,GI50,MOLT-4 leukemia,38.6 µM
same,TGI,MOLT-4 leukemia,> 100 µM
same,GI50,NCI-H226 lung,2.96 µM
same,TGI,NCI-H226 lung,10.4 µM
same,GI50,NCI-H23 lung,13.7 µM
same,TGI,NCI-H23 lung,45.1 µM
same,GI50,NCI-H460 lung,5.63 µM
same,TGI,NCI-H460 lung,58.7 µM
same,GI50,NCI-H522 lung,5.18 µM
same,TGI,NCI-H522 lung,32.4 µM
same,GI50,OVCAR-3 ovarian,9.93 µM
same,TGI,OVCAR-3 ovarian,27.2 µM
same,GI50,OVCAR-4 ovarian,3.85 µM
same,TGI,OVCAR-4 ovarian,24.5 µM
same,GI50,OVCAR-5 ovarian,21 µM
same,TGI,OVCAR-5 ovarian,85.8 µM
same,GI50,OVCAR-8 ovarian,4.9 µM
same,TGI,OVCAR-8 ovarian,> 100 µM
same,GI50,PC-3 prostate,6.9 µM
same,TGI,PC-3 prostate,45.7 µM
same,GI50,RPMI-8226 leukemia,16.8 µM
same,TGI,RPMI-8226 leukemia,> 100 µM
same,GI50,RXF 393 renal,2.27 µM
same,TGI,RXF 393 renal,8.31 µM
same,GI50,SF-268 CNS,3.41 µM
same,TGI,SF-268 CNS,20.4 µM
same,GI50,SF-295 CNS,5.49 µM
same,TGI,SF-295 CNS,26.8 µM
same,GI50,SF-539 CNS,3.16 µM
same,TGI,SF-539 CNS,14.8 µM
same,GI50,SK-MEL-2 melanoma,14.6 µM
same,TGI,SK-MEL-2 melanoma,39.2 µM
same,GI50,SK-MEL-28 melanoma,7.39 µM
same,TGI,SK-MEL-28 melanoma,31.6 µM
same,GI50,SK-MEL-5 melanoma,14.2 µM
same,TGI,SK-MEL-5 melanoma,71.6 µM
same,GI50,SK-OV-3 ovarian,4.97 µM
same,TGI,SK-OV-3 ovarian,21.2 µM
same,GI50,SN12C renal,11.6 µM
same,TGI,SN12C renal,> 100 µM
same,GI50,SNB-19 CNS,3.7 µM
same,TGI,SNB-19 CNS,28.6 µM
same,GI50,SNB-75 CNS,1.69 µM
same,TGI,SNB-75 CNS,3.98 µM
same,GI50,SR leukemia,21.6 µM
same,TGI,SR leukemia,> 100 µM
same,GI50,SW-620 colon,26.2 µM
same,TGI,SW-620 colon,> 100 µM
same,GI50,T-47D breast,19.7 µM
same,TGI,T-47D breast,> 100 µM
same,GI50,TK-10 renal,26.3 µM
same,TGI,TK-10 renal,90 µM
same,GI50,U251 CNS,13.5 µM
same,TGI,U251 CNS,46.6 µM
same,GI50,UACC-257 melanoma,16.4 µM
same,TGI,UACC-257 melanoma,82 µM
same,GI50,UACC-62 melanoma,14.8 µM
same,TGI,UACC-62 melanoma,53.2 µM
same,GI50,UO-31 renal,14.5 µM
same,TGI,UO-31 renal,54.4 µM
